Results published in patent publication US5482957A, “Azole derivatives, process for their preparation and their use” (Hoechst Aktiengesellschaft, priority 1991, dated 1996).
pIC50: −log10 of the molar value.

Target: angiotensin II receptor
Experiment: Displacement of 125I- or 3H-angiotensin II from receptor preparations from various organs (liver, lung, adrenal gland, brain etc.)
Type: binding
Details: Table 1; radioligand displacement, 25° C., 90 min, pH 7.4
Protocol: Alternatively, the affinity of the compounds of the formula I for the angiotensin II receptor can be determined by measurement of the ^125 I-angiotensin II or ^3 H-angiotensin II displacement of receptor preparations from various organs (liver, lung, adrenal gland, brain etc.).
To this end, the prepared membranes are suspended in an incubation buffer ([…], pH 7.4, containing 135 mM NaCl, 10 mM KCl, 10 mM MgCl2, 5 mM glucose, 0.2% bovine serum albumin and the protease inhibitors PMSF, 0.3 mM, and bacitracin, 0.1 mM) and incubated at 25° C. for 90 min together with the radioactively labeled angiotensin II and various concentrations of the compounds to be tested. Bound and free radioligand are then separated by filtration through micro glass fiber filters (GF51, Schleicher and Schull) in a cell collector (SKATRON).
The degree of displacement of the radioligand from the receptor by the test compounds is determined by measurement of the receptor-bound radioactivity on the filters by means of a beta- or gamma-spectrometer. The amount of the displacement of the radioligand from the receptor by the test compounds is indicated by the IC50, i.e. the concentration of the inhibitor which displaces 50% of the bound radioligand from the receptor. The calculation of the IC50 values is carried out by means of PC software (LIGAND, G. A. McPherson 1985, Elsevier BIOSOFT, 68 Hills Road, Cambridge, CB2 1LA, UK.).

pIC50 | SMILES
8.74 | CCCCc1nc(SC)c(C(=O)O)n1Cc1ccc(-c2ccccc2S(=O)(=O)NC(=O)N[C@H](CO)c2ccccc2)cc1 [Example 124]
8.55 | CCCCc1nc(SC)c(C(=O)O)n1Cc1ccc(-c2ccccc2S(=O)(=O)NC(=O)N[C@@H](CO)c2ccccc2)cc1 [Example 125]
8.52 | C=C[C@H](Cc1ccccc1)NC(=O)NS(=O)(=O)c1ccccc1-c1ccc(Cn2c(CCCC)nc(SC)c2C(=O)O)cc1 [Example 127]
8.25 | CCCCc1nc(SC)c(C(=O)OCC)n1Cc1ccc(-c2ccccc2S(=O)(=O)NC(=O)N[C@H](CO)Cc2ccccc2)cc1 [Example 128]
8.82 | CCCCc1nc(SC)c(C(=O)O)n1Cc1ccc(-c2ccccc2S(=O)(=O)NC(=O)N[C@H](CO)Cc2ccccc2)cc1 [Example 129]
6.74 | CCCCc1nc(SC)c(C(=O)OCC)n1Cc1ccc(-c2ccccc2S(=O)(=O)NC(=O)NCC2CCC3CC2C3(C)C)cc1 (stereo not drawn) [Example 134]
8.25 | CCCCc1nc(SC)c(C(=O)O)n1Cc1ccc(-c2ccccc2S(=O)(=O)NC(=O)NCC2CCC3CC2C3(C)C)cc1 (stereo not drawn) [Example 135]
8.77 | CCCCc1nc(SC)c(C(=O)OCC)n1Cc1ccc(-c2ccccc2S(=O)(=O)NC(=O)n2cccc2)cc1 [Example 138]
8.55 | CCCCc1nc(SC)c(C(=O)O)n1Cc1ccc(-c2ccccc2S(=O)(=O)NC(=O)n2cccc2)cc1 [Example 139]
8.09 | CCCCc1nc(SC)c(C(=O)OCC)n1Cc1ccc(-c2ccccc2S(=O)(=O)NC(=O)N2CCOCC2)cc1 [Example 140]
8.36 | CCCCc1nc(SC)c(C(=O)OCC)n1Cc1ccc(-c2ccccc2S(=O)(=O)NC(=O)N2CCCC2)cc1 [Example 141]
8.28 | CCCCc1nc(SC)c(C(=O)OCC)n1Cc1ccc(-c2ccccc2S(=O)(=O)NC(=O)N2CCSCC2)cc1 [Example 144]
7.40 | CCCCc1nc(SC)c(C(=O)OCC)n1Cc1ccc(-c2ccccc2S(=O)(=O)NC(=O)N2CCC(NC(=O)OC(C)(C)C)CC2)cc1 [Example 146]
9.40 | CCCCc1nc(SC)c(C(=O)OCC)n1Cc1ccc(-c2ccccc2S(=O)(=O)NC(=O)OCCc2ccccc2)cc1 [Example 151]
8.82 | CCCCc1nc(SC)c(C(=O)O)n1Cc1ccc(-c2ccccc2S(=O)(=O)NC(=O)OCCc2ccccc2)cc1 [Example 152]
9.06 | C=CCCOC(=O)NS(=O)(=O)c1ccccc1-c1ccc(Cn2c(CCCC)nc(SC)c2C(=O)O)cc1 [Example 153]
8.74 | C#CCCOC(=O)NS(=O)(=O)c1ccccc1-c1ccc(Cn2c(CCCC)nc(SC)c2C(=O)O)cc1 [Example 154]
8.22 | CCCCc1nc(SC)c(C(=O)O)n1Cc1ccc(-c2ccccc2S(=O)(=O)NC(=O)OCC2CC2)cc1 [Example 155]
8.33 | CCCCc1nc(SC)c(C(=O)OCC)n1Cc1ccc(-c2ccccc2S(=O)(=O)NC(=O)OCCOC(C)C)cc1 [Example 156]
8.85 | CCCCc1nc(SC)c(C(=O)O)n1Cc1ccc(-c2ccccc2S(=O)(=O)NC(=O)OCCOC(C)C)cc1 [Example 157]
8.06 | CCCCc1nc(SC)c(C(=O)OCC)n1Cc1ccc(-c2ccccc2S(=O)(=O)NC(=O)OCc2cccs2)cc1 [Example 159]
9.14 | CCCCc1nc(SC)c(C(=O)O)n1Cc1ccc(-c2ccccc2S(=O)(=O)NC(=O)OCc2cccs2)cc1 [Example 160]
7.24 | CCCCc1nc(SC)c(C(=O)OCC)n1Cc1ccc(-c2ccccc2S(=O)(=O)NC(=O)OCC=Cc2ccccc2)cc1 [Example 161]

pIC50 | SMILES
8.41 | CCCCc1nc(SC)c(C(=O)O)n1Cc1ccc(-c2ccccc2S(=O)(=O)NC(=O)OCC=Cc2ccccc2)cc1 [Example 162]
8.43 | CCCCc1nc(SC)c(C(=O)OCC)n1Cc1ccc(-c2ccccc2S(=O)(=O)NC(=O)OCc2cccs2)cc1 [Example 163]
9.07 | CCCCc1nc(SC)c(C(=O)O)n1Cc1ccc(-c2ccccc2S(=O)(=O)NC(=O)OCc2cccs2)cc1 [Example 164]
8.64 | CCCCc1nc(SC)c(C(=O)O)n1Cc1ccc(-c2ccccc2S(=O)(=O)NC(=O)OCC=C(C)C)cc1 [Example 165]
8.92 | C=C(C)COC(=O)NS(=O)(=O)c1ccccc1-c1ccc(Cn2c(CCCC)nc(SC)c2C(=O)O)cc1 [Example 166]
8.40 | C=CCCCOC(=O)NS(=O)(=O)c1ccccc1-c1ccc(Cn2c(CCCC)nc(SC)c2C(=O)O)cc1 [Example 167]
8.15 | CCCCc1nc(SC)c(C(=O)O)n1Cc1ccc(-c2ccccc2S(=O)(=O)NC(=O)OCC2CC=CCC2)cc1 (stereo not drawn) [Example 168]
8.54 | CC#CCOC(=O)NS(=O)(=O)c1ccccc1-c1ccc(Cn2c(CCCC)nc(SC)c2C(=O)O)cc1 [Example 169]
8.57 | CCCCc1nc(SC)c(C(=O)OCC)n1Cc1ccc(-c2ccccc2S(=O)(=O)NC(=O)OCC)cc1 [Example 170]
9.15 | CCCCc1nc(SC)c(C(=O)O)n1Cc1ccc(-c2ccccc2S(=O)(=O)NC(=O)OCC)cc1 [Example 171]
9.32 | CCCCc1nc(SC)c(C(=O)O)n1Cc1ccc(-c2ccccc2S(=O)(=O)NC(=O)OCCOCc2ccccc2)cc1 [Example 172]
8.29 | CCCCc1nc(SC)c(C(=O)OCC)n1Cc1ccc(-c2ccccc2S(=O)(=O)NC(=O)OC)cc1 [Example 174]
8.59 | CCCCc1nc(SC)c(C(=O)O)n1Cc1ccc(-c2ccccc2S(=O)(=O)NS(=O)(=O)N(C)C)cc1 [Example 179, 1-[1-(2'-dimethylsulfamoylaminosulfonylbiphenyl-4-yl)methyl]-2-n-butyl-4-methylthioimidazole-5-carboxylic acid]
9.00 | C=CCOC(=O)NS(=O)(=O)c1ccccc1-c1ccc(Cn2c(CCCC)nc(SC)c2C(=O)O)cc1 [Example 181, 1-[(2'-allyloxycarbonylaminosulfonylbiphenyl-4-yl)methyl]-2-n-butyl-4-methylthioimidazole-5-carboxylic acid]
8.77 | CCCCc1nc(SC)c(C(=O)O)n1Cc1ccc(-c2ccccc2S(=O)(=O)NC(=O)OCc2ccccc2)cc1 [Example 183, 1-[(2'-Benzyloxycarbonylaminosulfonylbiphenyl-4-yl)methyl]-2-n-butyl-4-methylthioimidazole-5-carboxylic acid]
8.23 | CCCCc1nc(OC)c(C=O)n1Cc1ccc(-c2ccccc2S(=O)(=O)NC(=O)OCC)cc1 [Example 185, 1-{[(2'-Ethoxycarbonylaminosulfonyl)biphenyl-4-yl]-methyl}-2-n-butyl-4-methoxyimidazole-5-carbaldehyde]
8.19 | CCCCc1nc(OC)c(C=O)n1Cc1ccc(-c2ccccc2S(=O)(=O)NC(=O)OCc2ccccc2)cc1 [Example 186, 1-{[(2'-Benzyloxycarbonylaminosulfonyl)biphenyl-4-]methyl}-2-n-butyl-4-methoxyimidazole-5-carbaldehyde]
8.92 | CCCCc1ncc(C(=O)OCC)n1Cc1ccc(-c2ccccc2S(=O)(=O)NC(=O)NCc2ccccc2)cc1 [Example 187, Ethyl 1-{[(2'-benzylaminocarbonylaminosulfonyl)biphenyl-4-yl]methyl}-2-n-butylimidazole-5-carboxylate]
7.66 | CCCCc1nc(SC)c(C(=O)O)n1Cc1ccc(-c2ccccc2S(=O)(=O)NS(=O)(=O)c2cccs2)cc1 [Example 190, 1-[(2'-{2-Thienylsulfonylaminosulfonyl}biphenyl-4-yl)methyl]-2-n-butyl-4-methylthioimidazole-5-carboxylic acid]
7.67 | CCCCc1nc(SC)c(C(=O)OCC)n1Cc1ccc(-c2ccccc2S(=O)(=O)NS(=O)(=O)c2ccc([N+](=O)[O-])cc2)cc1 [Example 191]
7.66 | CCCCc1nc(SC)c(C(=O)OCC)n1Cc1ccc(-c2ccccc2S(=O)(=O)NS(=O)(=O)c2cccs2)cc1 [Example 194]
8.52 | CCCCc1nc(SC)c(C(=O)OCC)n1Cc1ccc(-c2ccccc2S(=O)(=O)NC(=O)NC)cc1 [Example 195]
